Assay results from the METLIN SMRT retention time set (Domingo-Almenara et al. 2019).

Test: gradient 5% acetonitrile 3 min, to 50% in 2 min, to 85% in 15 min, held 3 min, 100 µL/min
Conditions: column: Zorbax Extend-C18 2.1 x 50 mm; eluents: water / acetonitrile, 0.1% formic acid
In short: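 Data were gathered over 3 months by HPLC coupled to a quadrupole time-of-flight mass spectrometer, operated in positive and negative ionization mode. Mixtures of ~100 pure standards ran on a Zorbax Extend-C18 column (2.1 × 50 mm, 1.8 μm) at 100 μL/min, with water and acetonitrile each containing 0.1% formic acid and dead and dwell volumes of 40 μL and 900 μL. Retention time was read from adduct peaks picked by computer and checked manually.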

| RP-LC retention time [s] | Structure (SMILES) |
| --- | --- |
| 867 | CCc1nnc(-c2cn(CC(=O)NCc3cccc(Br)c3)c3ccccc23)o1 |
| 737 | O=C(NCC1CCCO1)c1ccc(Cn2nc(N3CCN(c4ccccc4)CC3)ccc2=O)o1 (stereo unspecified) |
| 1140 | CCn1nccc1-c1cccc(-c2noc(-c3ccc4cc[nH]c4c3)n2)c1 |
| 950 | O=C(N[C@H]1C[C@@H]2C[C@H]1N(C(=O)Nc1ccc3c(c1)CCC3)C2)c1ccccc1 |
| 885 | O=C(CN1C(=O)CCCc2cc(S(=O)(=O)N3CCCC3)ccc21)NCc1ccccc1 |
| 720 | CC1CCN(S(=O)(=O)N2CCC(C(=O)N3CCC(Cc4nncn4C(C)C)CC3)CC2)CC1 |
| 567 | COc1ccc(-c2ncn3c2C(=O)N(CC(=O)O)CC3)cc1 |
| 568 | COc1cc(CN2CC(N(Cc3ccncc3)S(C)(=O)=O)C2)cc(OC)c1 |
| 674 | CC1CCCCN1CCCNC(=O)CCCn1c(=O)c2cccn2c2ccc(Br)cc21 (stereo unspecified) |
| 701 | O=C(NCc1cccnc1)c1cccn1Cc1noc(-c2ccc(Cl)cc2)n1 |
| 1090 | CC(C)n1c(=O)oc2cc(-c3noc(-c4cccc(C#N)c4)n3)ccc21 |
| 755 | CCCn1c(=O)c2sc(N3CCCC3)nc2n(CC(=O)NCc2cccs2)c1=O |
| 719 | Cc1nc(Nc2ccc(F)cn2)sc1C(=O)N1CCN(c2ncccn2)CC1 |
| 698 | Cc1oc(-c2[nH]ncc2C(=O)N2CCCC2)cc1S(=O)(=O)Nc1ccc(F)cc1F |
| 555 | O=C(c1cn2ccccc2n1)N1CCN(Cc2cccc(F)c2)CC1 |
| 978 | CCOc1ccccc1NC(=O)c1cnc(-c2ccccc2)nc1-c1ccncc1 |
| 632 | Cn1nc(N2CCC(NC(=O)Cc3c[nH]c4ccccc34)C2)ccc1=O (stereo unspecified) |
| 725 | O=C(Oc1ccc2c(c1)O/C(=C\c1ccncc1)C2=O)c1ccc2c(c1)OCO2 |
| 622 | Cc1cc(NC(=O)c2cccc(N3C(=O)CCC3=O)c2)on1 |
| 678 | Cc1ccc(NC(=O)Cn2cnc3nc(N4CCC(C(=O)NC5CC5)CC4)sc3c2=O)c(C)c1 |
| 710 | Cc1ccc(Cn2c(=O)n(CCNC(=O)C3CCOC3)c3ncccc32)cc1 (stereo unspecified) |

| RP-LC retention time [s] | Structure (SMILES) |
| --- | --- |
| 693 | Cc1ccc(-c2ncc(C(=O)O)c(-c3ccncc3)n2)cc1 |
| 671 | O=C(c1ccc(-c2cccnc2)nc1)N1CCN(c2ccc(F)cc2)CC1 |
| 594 | NC(=O)CCC(NC(=O)Cc1ccccc1)C(=O)O (stereo unspecified) |
| 777 | CCOC(=O)C1=C[C@]2(CC)CCCN3CCc4c(n1c1ccccc41)[C@@H]32 |
| 761 | COc1cc(COc2cc(N)c(Cl)cc2C(=O)CCC2CCN(CCNS(C)(=O)=O)CC2)cc(OC)c1 |
| 756 | c1ccc(N2CCN(Cc3cccn3-c3nnc(N4CCOCC4)s3)CC2)nc1 |
| 786 | CCc1ccc(S(=O)(=O)NCCc2cn(C)c3ncccc23)cc1 |
| 896 | Cc1ccsc1C(=O)N1CCC2(CC1)N=C(c1ccc(Cl)cc1)NO2 |
| 1070 | CCc1ccc(-c2ccc(=O)n(CCc3nc(-c4ccc5c(c4)OCO5)no3)n2)cc1 |
| 778 | Cc1[nH]c(C)c(S(=O)(=O)N2CCC(C(=O)NC3CCC(C)CC3)CC2)c1C(=O)N1CCCCC1 (stereo unspecified) |
| 1280 | COc1ccc(C)cc1NS(=O)(=O)c1ccccc1-c1nc(-c2ccc(F)cc2)no1 |
| 589 | CCCCN(C)C(=O)Cn1c(CO)nc2ccccc21 |
| 888 | CCc1ccc(NC(=O)Cn2c(=O)n(-c3ccc(F)cc3)c(=O)c3c2cc(C)n3C)cc1 |
| 870 | CCc1cc(C2CCCN2C(=O)c2cnn3c(C(F)(F)F)cc(-c4ccco4)nc23)on1 (stereo unspecified) |
| 804 | Cc1sc2ccn(C)c(=O)c2c1C(=O)NC1CCCCCC1 |
| 705 | O=C(NC1CCN(c2cc(-c3ccc(F)cc3)[nH]n2)C1)c1ccccc1 (stereo unspecified) |
| 656 | CCNC(=O)CN1C(=O)CCn2nc(-c3cn(C)c4ccccc34)cc21 |
| 751 | O=C(NC1CC1)c1ccc(OCC2CCCN2C(=O)c2ccccc2F)cc1 (stereo unspecified) |
| 730 | COc1ccc(NC(=O)Cn2nc(N3CCOCC3)c3ccccc3c2=O)cc1 |
| 944 | CCc1ccccc1NC(=O)C1CCN(S(C)(=O)=O)c2cc(Cl)ccc2O1 (stereo unspecified) |
| 807 | Cc1ccc(CC(=O)NC2CCN(c3cc(-c4ccc(Cl)cc4)[nH]n3)C2)cc1 (stereo unspecified) |

| RP-LC retention time [s] | Structure (SMILES) |
| --- | --- |
| 664 | CCN1CCCC1CNC(=O)C1CCN(S(=O)(=O)c2ccc3c(ccn3CC)c2)CC1 (stereo unspecified) |
| 861 | Cc1nn(-c2ccc(F)cc2)c(C)c1S(=O)(=O)N1CCC(C(=O)NCc2cccs2)CC1 |
| 868 | CCn1c(=O)c(N2CCN(C(=O)Nc3ccc4c(c3)OCO4)CC2)nc2ccccc21 |
| 821 | CCc1ccccc1NC(=O)C1CCCN1S(=O)(=O)c1cc2c(cc1C)NC(=O)CO2 (stereo unspecified) |
| 771 | CCc1cc(=O)n(CC(=O)Nc2cc(Cl)ccc2C)c(N2CCOCC2)n1 |
| 831 | CCOc1ccc(N2CC(C)Cn3c2nc2c3c(=O)n(C)c(=O)n2C)cc1 (stereo unspecified) |
| 761 | O=C(NCc1ccc(F)cc1F)C1CCN(c2ncnc3c2oc2ccccc23)CC1 |
| 629 | O=C(NC1CC1)C1CCCN(C(=O)c2ccc(F)cc2)C1 (stereo unspecified) |
| 1110 | Cc1ccc(NC(=O)Cn2nc3c(N4CCN(c5ccccc5C)CC4)nccn3c2=O)cc1F |
| 777 | CCc1noc(NC(C)=O)c1-c1ccc(OC)c(S(=O)(=O)Nc2ccc(OC)cc2OC)c1 |
| 1220 | COc1cc(O)c(C(=O)/C=C/c2ccccc2)c(OC)c1 |
| 769 | Cc1csc(-c2cc(S(=O)(=O)NCCc3ccc(S(N)(=O)=O)cc3)c(C)n2C)n1 |
| 724 | CCOC(=O)CCNC(=O)N1CCc2cc(-c3ccc(C(=O)N4CCOCC4)cc3)ccc21 |
| 690 | Cc1nc2c(NC(=O)c3cccs3)cccn2n1 |
| 670 | Cc1cccc(-c2nnc(-c3nc(NCc4ccc(C)o4)c4ccccc4n3)o2)c1 |
| 622 | NC(=O)C1CCN(C(=O)Cc2csc(NC(=O)Nc3ccccc3)n2)CC1 |
| 870 | COc1ccc(C)c2sc(NS(=O)(=O)c3ccc(C)cc3)nc12 |
| 803 | O=C(NC1CC1)c1ccc(OCC2CCCN(C(=O)c3ccc(F)cc3)C2)cc1 (stereo unspecified) |
| 599 | CCN(CC)CCNC(=O)C1c2ccccc2C(=O)N2CCc3cc(OC)c(OC)cc3C12 (stereo unspecified) |
| 586 | CCN1C(=O)NC(c2cccc(F)c2)C2=C1CN(CCC(=O)NCCOC)C2=O (stereo unspecified) |
| 793 | CCC(CC)C(=O)N1C[C@H](c2nc(-c3ccncc3)no2)[C@@H](C)C1 |

| RP-LC retention time [s] | Structure (SMILES) |
| --- | --- |
| 601 | Cc1nn(CC(=O)NCCN(C)C)c(=O)c2nc(-c3ccccc3)sc12 |
| 839 | COc1ccc(N2CC(c3noc(-c4ccc(OC)c(OC)c4)n3)CC2=O)cc1 (stereo unspecified) |
| 911 | COc1ccc(CCC(=O)N(C)CCc2noc(COc3ccc(OC)cc3)n2)cc1 |
| 1100 | O=C(NCc1ccc(F)c(Cl)c1)C1CCCN(c2nccnc2Sc2ccccc2)C1 (stereo unspecified) |
| 944 | CC1=NS(=O)(=O)N(C)C=C1C(=O)OCc1nc(-c2ccccc2)no1 |
| 599 | CCOC(=O)C1=C(CN2CCC(N3CCCCC3)CC2)NC(=O)NC1c1ccc(Cl)cc1 (stereo unspecified) |
| 959 | CCc1ccc(CNC(=O)c2c(C)sc3ccn(CC)c(=O)c23)cc1 |
| 621 | CCc1nnc2nc(N3CCN(C(=O)COc4ccc(F)cc4)CC3)cc(C)n12 |
| 882 | O=C(Nc1ccc2c(c1)OCCO2)N1CCCC1c1nc(-c2ccc(F)cc2F)no1 (stereo unspecified) |
| 911 | Cc1ccc(C)c2sc(OC3CCN(C(=O)c4ccc(=O)n(C)n4)CC3)nc12 |
| 642 | O=C(CCCn1c(=O)c2cccn2c2ccc(F)cc21)Nc1ccc2c(c1)OCCO2 |
| 921 | O=C(CN1C(=O)C2CCCCN2c2ccc(C(=O)N3CCCCC3)cc21)N1CCc2ccccc2C1 (stereo unspecified) |
| 733 | CCNC(=O)C1CCN(C(=O)Nc2ccc(NC(=O)Nc3ccc(CC)cc3)cc2)CC1 |
| 1020 | Cc1ccccc1-c1nnc(SCC(=O)N2CCC(C)CC2)o1 |
| 809 | CCOc1ccccc1NC(=O)N1CCCC1c1nc(-c2ccccc2OC)no1 (stereo unspecified) |
| 754 | O=C(Cn1ncc2c(c1=O)N(C1CC1)C(=O)CS2)NCCC1=CCCCC1 |
| 1070 | Cc1cc2nn(CC(=O)Nc3ccc(F)c(Cl)c3)c(=O)n2c(Nc2ccccc2)n1 |
| 1400 | Cc1ccc(C2Cn3nnc(-c4nc(-c5cccc(Cl)c5)no4)c3CO2)c(C)c1 (stereo unspecified) |
| 714 | Cc1cc(NC(=O)Cn2ccn3nc(-c4ccccc4)c(CO)c3c2=O)no1 |
| 967 | COc1ccc(NC(=O)Cn2cnc3c(sc4nc(-c5ccccc5)ccc43)c2=O)cc1 |

| Structure (SMILES) | RP-LC retention time [s] |
| --- | --- |
| CCOc1cc(=O)n2c(c1C(=O)N1CCC3(CC1)OCCO3)CCCCC2 | 639 |
| Oc1ccc2c3c1O[C@H]1[C@@H](O)CC[C@@]4(O)C(C2)N(CC2CCC2)CCC314 (stereo partly specified) | 635 |
| CCCn1cc(C(=O)NCc2cccnc2)c2cccnc21 | 580 |
